Assay results as given in patent US6890736B1, “Methods for producing proteins in cultured cells” (Immunex Corporation, priority 2002, dated 2005).

How the values were obtained:
Format in all cases: cell-based, Chinese hamster
[1] = tested on: cell line 25H9 (CHO cells); assay: Example 3: cell number (Guava PCA Cytometer); details: 31° C.
Method: (§1) About 2×10^6 cells of cell line 25H9 were inoculated into 30 milliliters of serum-free medium and incubated at the temperatures indicated in Table 1 in vented shake flasks. At the times indicated in Table 1, samples were taken from each flask to determine IL-1R-II titer, cell number, and cell viability. IL-1R-II protein titer was determined by ELISA assay. Cell number was determined by counting cells in a hemocytometer. Cell viability was determined by trypan blue staining and counting stained cells in a hemocytometer. Cumulative viable cell density (CVCD) is the area under the curve of a plot of the viable cell density versus time (in units of cells/ml/day). Productivity (pg of IL-1R-II/cell/day) was determined by dividing the protein titer on a particular day by the CVCD on the same day. Cells were fed with amino acids on days 2 and 5, and dextrose was added periodically in order to maintain levels above 2.0 g/L. All samples were done in duplicate, and the data shown is an average value.
(§2) The following experiment compares the effects of 5-bromo-2′-deoxycytidine 5′-monophosphate and 5-aza-2′-deoxycytidine on induction of protein production. The experiment was done as described in Example 1 with the following exceptions. All cultures were incubated at 31° C., and cell number and viability were determined using a Guava PCA Cytometer (available from Guava Technologies, Hayward, Calif., USA). Samples were done in triplicate.

[2] = tested on: cell line 25H9 (CHO cells that produce IL-1R-II protein); assay: Example 3: induction with 5-bromo-2′-deoxycytidine 5′-monophosphate, IL-1R-II production
Method: as §1, §2

[3] = Example 2: cell number and viability; details: Chinese hamster, 31° C., 0.5 mM butyrate
Method: as §1
(§3) To determine an optimum temperature and decitabine concentration, three temperatures (30° C., 31° C., and 32° C.) and three decitabine concentrations (10 μM, 15 μM, and 20 μM) were tested. A 31° C. culture containing 0.5 mM sodium butyrate was grown as a control. […] See e.g. International Application Nos. WO 89/06686 and WO 87/05626. The experiment was performed as in Example 1 except that the inducer concentrations, temperatures, and days at which data was collected are as indicated in Table 2 and FIG. 1.

[4] = tested on: cell line 25H9 (CHO cells); assay: Example 2: cell number and viability; details: 31° C., 0.5 mM butyrate
Method: as §1, §3

[5] = tested on: cell line 25H9 (CHO cells that produce IL-1R-II protein); assay: Example 2: optimization of temperature and decitabine concentration, IL-1R-II production; details: 31° C., 0.5 mM butyrate
Method: as §1, §3

SMILES: Nc1nc(=O)n([C@H]2C[C@H](O)[C@@H](COP(=O)(O)O)O2)cc1Br [5-bromo-2′-deoxycytidine 5′-monophosphate]
- Cumulative Viable Cell Density ([1]; 5 μM, day 0): 0.0 10^6 cells/ml/day
- Viable Cell Density ([1]; 5 μM, day 0): 2.4 cells/ml × 10^6
- Cumulative Viable Cell Density ([1]; 5 μM, day 2): 5.5 10^6 cells/ml/day
- Viable Cell Density ([1]; 5 μM, day 2): 3.1 cells/ml × 10^6
- Cumulative Viable Cell Density ([1]; 5 μM, day 5): 14.3 10^6 cells/ml/day
- Viable Cell Density ([1]; 5 μM, day 5): 2.8 cells/ml × 10^6
- Cumulative Viable Cell Density ([1]; 5 μM, day 7): 19.4 10^6 cells/ml/day
- Viable Cell Density ([1]; 5 μM, day 7): 2.3 cells/ml × 10^6
- Cumulative Viable Cell Density ([1]; 5 μM, day 9): 23.5 10^6 cells/ml/day
- Viable Cell Density ([1]; 5 μM, day 9): 1.8 cells/ml × 10^6
- Cumulative Viable Cell Density ([1]; 10 μM, day 0): 0.0 10^6 cells/ml/day
- Viable Cell Density ([1]; 10 μM, day 0): 2.4 cells/ml × 10^6
- Cumulative Viable Cell Density ([1]; 10 μM, day 2): 5.6 10^6 cells/ml/day
- Viable Cell Density ([1]; 10 μM, day 2): 3.3 cells/ml × 10^6
- Cumulative Viable Cell Density ([1]; 10 μM, day 5): 15.0 10^6 cells/ml/day
- Viable Cell Density ([1]; 10 μM, day 5): 3.0 cells/ml × 10^6
- Cumulative Viable Cell Density ([1]; 10 μM, day 7): 20.9 10^6 cells/ml/day
- Viable Cell Density ([1]; 10 μM, day 7): 2.8 cells/ml × 10^6
- Cumulative Viable Cell Density ([1]; 10 μM, day 9): 26.0 10^6 cells/ml/day
- Viable Cell Density ([1]; 10 μM, day 9): 2.3 cells/ml × 10^6
- Cumulative Viable Cell Density ([1]; 15 μM, day 0): 0.0 10^6 cells/ml/day
- Viable Cell Density ([1]; 15 μM, day 0): 2.4 cells/ml × 10^6
- Cumulative Viable Cell Density ([1]; 15 μM, day 2): 5.4 10^6 cells/ml/day
- Viable Cell Density ([1]; 15 μM, day 2): 3.0 cells/ml × 10^6
- Cumulative Viable Cell Density ([1]; 15 μM, day 5): 13.8 10^6 cells/ml/day
- Viable Cell Density ([1]; 15 μM, day 5): 2.6 cells/ml × 10^6
- Cumulative Viable Cell Density ([1]; 15 μM, day 7): 18.6 10^6 cells/ml/day
- Viable Cell Density ([1]; 15 μM, day 7): 2.2 cells/ml × 10^6
- Cumulative Viable Cell Density ([1]; 15 μM, day 9): 22.4 10^6 cells/ml/day
- Viable Cell Density ([1]; 15 μM, day 9): 1.6 cells/ml × 10^6
- viable cell density versus 10 μM 5-aza-2′-deoxycytidine ([1]; all three concentrations tested): higher
- effectiveness at inducing protein production relative to 5-aza-2′-deoxycytidine ([2]; 31° C.): about twice as effective
- inducing IL-1R-II production, 10 μM versus 5 μM or 15 μM ([2]; 31° C.): more effective than either 5 μM or 15 μM
- Titer of IL-1R-II ([2]; 31° C., 5 μM, day 0): 0.0 mg/L
- Productivity ([2]; 31° C., 5 μM, day 2): 12.4 pg of IL-1RII/cell/day
- Titer of IL-1R-II ([2]; 31° C., 5 μM, day 2): 67.6 mg/L
- Productivity ([2]; 31° C., 5 μM, day 5): 13.8 pg of IL-1RII/cell/day
- Titer of IL-1R-II ([2]; 31° C., 5 μM, day 5): 197.4 mg/L
- Productivity ([2]; 31° C., 5 μM, day 7): 14.9 pg of IL-1RII/cell/day
- Titer of IL-1R-II ([2]; 31° C., 5 μM, day 7): 289.1 mg/L
- Productivity ([2]; 31° C., 5 μM, day 9): 15.2 pg of IL-1RII/cell/day
- Titer of IL-1R-II ([2]; 31° C., 5 μM, day 9): 357.6 mg/L
- Titer of IL-1R-II ([2]; 31° C., 10 μM, day 0): 0.0 mg/L
- Productivity ([2]; 31° C., 10 μM, day 2): 13.4 pg of IL-1RII/cell/day
- Titer of IL-1R-II ([2]; 31° C., 10 μM, day 2): 75.0 mg/L
- Productivity ([2]; 31° C., 10 μM, day 5): 17.6 pg of IL-1RII/cell/day
- Titer of IL-1R-II ([2]; 31° C., 10 μM, day 5): 264.0 mg/L
- Productivity ([2]; 31° C., 10 μM, day 7): 19.2 pg of IL-1RII/cell/day
- Titer of IL-1R-II ([2]; 31° C., 10 μM, day 7): 401.4 mg/L
- Productivity ([2]; 31° C., 10 μM, day 9): 18.6 pg of IL-1RII/cell/day
- Titer of IL-1R-II ([2]; 31° C., 10 μM, day 9): 484.0 mg/L
- Titer of IL-1R-II ([2]; 31° C., 15 μM, day 0): 0.0 mg/L
- Productivity ([2]; 31° C., 15 μM, day 2): 11.4 pg of IL-1RII/cell/day
- Titer of IL-1R-II ([2]; 31° C., 15 μM, day 2): 61.4 mg/L
- Productivity ([2]; 31° C., 15 μM, day 5): 12.1 pg of IL-1RII/cell/day
- Titer of IL-1R-II ([2]; 31° C., 15 μM, day 5): 167.3 mg/L
- Productivity ([2]; 31° C., 15 μM, day 7): 13.4 pg of IL-1RII/cell/day
- Titer of IL-1R-II ([2]; 31° C., 15 μM, day 7): 249.1 mg/L
- Productivity ([2]; 31° C., 15 μM, day 9): 14.2 pg of IL-1RII/cell/day
- Titer of IL-1R-II ([2]; 31° C., 15 μM, day 9): 318.3 mg/L
- inducing IL-1R-II production, all three concentrations versus 10 μM 5-aza-2′-deoxycytidine ([2]; 31° C., 5, 10, 15 μM): more effective than 10 μM 5-aza-2′-deoxycytidine

SMILES: CCCC(=O)[O-].[Na+] [butyrate, sodium butyrate]
- viability at 0 day, 0.5 mM ([3]; day 0): 94.2%
- viability at 3 day, 0.5 mM ([3]; day 3): 91.7%
- viability at 6 day, 0.5 mM ([3]; day 6): 88.5%
- viability at 8 day, 0.5 mM ([3]; day 8): 71.1%
- Cumulative Viable Cell Density ([4]; day 0): 0 mL⁻¹ day⁻¹
- Viable Cell Density ([4]; day 0): 2e+06 mL⁻¹
- Cumulative Viable Cell Density ([4]; day 3): 8.9e+06 mL⁻¹ day⁻¹
- Viable Cell Density ([4]; day 3): 4e+06 mL⁻¹
- Cumulative Viable Cell Density ([4]; day 6): 2.09e+07 mL⁻¹ day⁻¹
- Viable Cell Density ([4]; day 6): 4e+06 mL⁻¹
- Cumulative Viable Cell Density ([4]; day 8): 2.89e+07 mL⁻¹ day⁻¹
- Viable Cell Density ([4]; day 8): 3.9e+06 mL⁻¹
- IL1R-II Titer ([5]; day 0): 0.0 µg/mL
- IL1R-II Titer ([5]; day 3): 214.0 µg/mL
- Productivity ([5]; day 3): 23.9 pg IL-1R-II/cell/day
- IL1R-II Titer ([5]; day 6): 473.0 µg/mL
- Productivity ([5]; day 6): 22.6 pg IL-1R-II/cell/day
- IL1R-II Titer ([5]; day 8): 862.0 µg/mL
- Productivity ([5]; day 8): 29.8 pg IL-1R-II/cell/day
